Key:
Test in all cases: cells
NCI-H1155 = assay type: functional, cell-based, Homo sapiens; conditions: Homo sapiens, NCI-H1155;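 further: cell growth inhibition measured by a viability assay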
Description: SANGER: Inhibition of human NCI-H1155 cell growth in a cell viability assay.

BB30-HNC = assay type: functional, cell-based, Homo sapiens; conditions: Homo sapiens, BB30-HNC;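 further: growth inhibition of the cultured cell line, read out by a cell viability assay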
Description: SANGER: Inhibition of human BB30-HNC cell growth in a cell viability assay.

OS-RC-2 = assay type: functional, cell-based, Homo sapiens; conditions: Homo sapiens, OS-RC-2;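 further: growth inhibition of human OS-RC-2 cells, measured by a cell viability assay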
Description: SANGER: Inhibition of human OS-RC-2 cell growth in a cell viability assay.

IST-MES1 = assay type: functional, cell-based, Homo sapiens; conditions: Homo sapiens, IST-MES1;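 further: growth inhibition of IST-MES1 cells, measured with a cell viability assay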
Description: SANGER: Inhibition of human IST-MES1 cell growth in a cell viability assay.

NCI-H1650 = assay type: functional, cell-based, Homo sapiens; conditions: Homo sapiens, NCI-H1650;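 further: growth inhibition of human NCI-H1650 cells measured by a cell viability assay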
Description: SANGER: Inhibition of human NCI-H1650 cell growth in a cell viability assay.

LS-513 = assay type: functional, cell-based, Homo sapiens; conditions: Homo sapiens, LS-513
Description: SANGER: Inhibition of human LS-513 cell growth in a cell viability assay.

A498 = assay type: functional, cell-based, Homo sapiens; conditions: Homo sapiens, A498;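 further: growth inhibition of human A498 cells, read out with a cell viability assay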
Description: SANGER: Inhibition of human A498 cell growth in a cell viability assay.

NCI-H1299 = assay type: functional, cell-based; conditions: Homo sapiens;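 further: growth inhibition of human NCI-H1299 cells, read out by a cell viability assay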
Description: SANGER: Inhibition of human NCI-H1299 cell growth in a cell viability assay.

HH = assay type: functional, cell-based, Homo sapiens; conditions: Homo sapiens, HH
Description: SANGER: Inhibition of human HH cell growth in a cell viability assay.

DOHH-2 = assay type: functional, cell-based, Homo sapiens; conditions: Homo sapiens, DOHH-2;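 further: growth inhibition of human DOHH-2 cells, read out with a cell viability assay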
Description: SANGER: Inhibition of human DOHH-2 cell growth in a cell viability assay.

NCI-H23 = assay type: functional, cell-based, Homo sapiens; conditions: Homo sapiens, NCI-H23;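 further: cell viability assay measuring growth inhibition of NCI-H23 cells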
Description: SANGER: Inhibition of human NCI-H23 cell growth in a cell viability assay.

Mo = assay type: functional, cell-based, Homo sapiens; conditions: Homo sapiens, Mo
Description: SANGER: Inhibition of human Mo-T cell growth in a cell viability assay.

SNU-5 = assay type: functional, cell-based, Homo sapiens; conditions: Homo sapiens, SNU-5;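 further: cell viability readout used to measure growth inhibition in human NCI-SNU-5 cells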
Description: SANGER: Inhibition of human NCI-SNU-5 cell growth in a cell viability assay.

NCI-H720 = assay type: functional, cell-based, Homo sapiens; conditions: Homo sapiens, NCI-H720;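 further: growth inhibition of human NCI-H720 cells determined by a cell viability assay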
Description: SANGER: Inhibition of human NCI-H720 cell growth in a cell viability assay.

NH-12 = assay type: functional, cell-based, Homo sapiens; conditions: Homo sapiens, NH-12;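 further: growth inhibition of NH-12 cells, read out with a cell viability assay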
Description: SANGER: Inhibition of human NH-12 cell growth in a cell viability assay.

SBC-1 = assay type: functional, cell-based, Homo sapiens; conditions: Homo sapiens, SBC-1;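 further: cell viability assay measuring growth inhibition of the SBC-1 cell line, IC50 being the concentration that halves growth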
Description: SANGER: Inhibition of human SBC-1 cell growth in a cell viability assay.

IST-SL1 = assay type: functional, cell-based, Homo sapiens; conditions: Homo sapiens, IST-SL1;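 further: growth inhibition of human IST-SL1 cells, read out with a cell viability assay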
Description: SANGER: Inhibition of human IST-SL1 cell growth in a cell viability assay.

L-363 = assay type: functional, cell-based, Homo sapiens; conditions: Homo sapiens, L-363
Description: SANGER: Inhibition of human L-363 cell growth in a cell viability assay.

LAMA-84 = assay type: functional, cell-based, Homo sapiens; conditions: Homo sapiens, LAMA-84;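 further: growth inhibition of LAMA-84 cells, read out with a cell viability assay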
Description: SANGER: Inhibition of human LAMA-84 cell growth in a cell viability assay.

NCI-H226 = assay type: functional, cell-based, Homo sapiens; conditions: Homo sapiens, NCI-H226;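 further: cell viability read-out used to gauge growth inhibition of the cells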
Description: SANGER: Inhibition of human NCI-H226 cell growth in a cell viability assay.

SCC-15 = assay type: functional, cell-based, Homo sapiens; conditions: Homo sapiens, SCC-15;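 further: growth inhibition of SCC-15 cells, read out with a cell viability assay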
Description: SANGER: Inhibition of human SCC-15 cell growth in a cell viability assay.

DoTc2-4510 = assay type: functional, cell-based; conditions: Homo sapiens
ES4 = assay type: functional, cell-based, Homo sapiens; conditions: Homo sapiens, ES4;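 further: growth inhibition of human ES4 cells, read out by a cell viability assay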
Description: SANGER: Inhibition of human ES4 cell growth in a cell viability assay.

KM-H2 = assay type: functional, cell-based, Homo sapiens; conditions: Homo sapiens, KM-H2;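 further: growth inhibition of KM-H2 cells, read out by a cell viability assay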
Description: SANGER: Inhibition of human KM-H2 cell growth in a cell viability assay.

HD-MY-Z = assay type: functional, cell-based, Homo sapiens; conditions: Homo sapiens, HD-MY-Z;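 further: growth inhibition of HD-MY-Z cells, read out with a cell viability assay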
Description: SANGER: Inhibition of human HD-MY-Z cell growth in a cell viability assay.

ACN = assay type: functional, cell-based, Homo sapiens; conditions: Homo sapiens, ACN;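 further: growth inhibition of the human ACN cell line, read out via cell viability testing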
Description: SANGER: Inhibition of human ACN cell growth in a cell viability assay.

KURAMOCHI = assay type: functional, cell-based, Homo sapiens; conditions: Homo sapiens, KURAMOCHI;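 further: growth inhibition of KURAMOCHI cells, read out with a cell viability assay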
Description: SANGER: Inhibition of human KURAMOCHI cell growth in a cell viability assay.

HCC2157 = assay type: functional, cell-based, Homo sapiens; conditions: Homo sapiens, HCC2157;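 further: growth inhibition of the cancer cell line, read out as cell viability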
Description: SANGER: Inhibition of human HCC2157 cell growth in a cell viability assay.

IA-LM = assay type: functional, cell-based; conditions: Homo sapiens;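 further: cell viability assay measuring growth inhibition of human IA-LM cells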
Description: SANGER: Inhibition of human IA-LM cell growth in a cell viability assay.

SK-N-FI = assay type: functional, cell-based, Homo sapiens; conditions: Homo sapiens, SK-N-FI;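 further: cell viability assay measuring growth inhibition of human SK-N-FI cells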
Description: SANGER: Inhibition of human SK-N-FI cell growth in a cell viability assay.

8-MG-BA = assay type: functional, cell-based, Homo sapiens; conditions: Homo sapiens, 8-MG-BA;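 further: growth inhibition of 8-MG-BA cells, read out with a cell viability assay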
Description: SANGER: Inhibition of human 8-MG-BA cell growth in a cell viability assay.

HCE-T = assay type: functional, cell-based, Homo sapiens; conditions: Homo sapiens, HCE-T;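 further: cell viability assay read-out, reporting inhibition of HCE-T cell growth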
Description: SANGER: Inhibition of human HCE-T cell growth in a cell viability assay.

SK-UT-1 = assay type: functional, cell-based, Homo sapiens; conditions: Homo sapiens, SK-UT-1;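 further: growth inhibition of SK-UT-1 cells, measured by a cell viability assay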
Description: SANGER: Inhibition of human SK-UT-1 cell growth in a cell viability assay.

MZ7-mel = assay type: functional, cell-based, Homo sapiens; conditions: Homo sapiens, MZ7-mel;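 further: growth inhibition of human MZ7-mel cells, measured by a cell viability assay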
Description: SANGER: Inhibition of human MZ7-mel cell growth in a cell viability assay.

MONO-MAC-6 = assay type: functional, cell-based, Homo sapiens; conditions: Homo sapiens, MONO-MAC-6;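 further: cell viability assay measuring growth inhibition of human MONO-MAC-6 cells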
Description: SANGER: Inhibition of human MONO-MAC-6 cell growth in a cell viability assay.

MHH-PREB-1 = assay type: functional, cell-based, Homo sapiens; conditions: Homo sapiens, MHH-PREB-1;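 further: cell viability assay measuring inhibition of proliferation of human MHH-PREB-1 cells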
Description: SANGER: Inhibition of human MHH-PREB-1 cell growth in a cell viability assay.

no-10 = assay type: functional, cell-based, Homo sapiens; conditions: Homo sapiens;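 further: growth inhibition of no-10 cells, read out with a cell viability assay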
Description: SANGER: Inhibition of human no-10 cell growth in a cell viability assay.

LOX IMVI = assay type: functional, cell-based, Homo sapiens; conditions: Homo sapiens, LOX IMVI
Description: SANGER: Inhibition of human LOXIMVI cell growth in a cell viability assay.

697 = assay type: functional, cell-based, Homo sapiens; conditions: Homo sapiens
Description: SANGER: Inhibition of human 697 cell growth in a cell viability assay.

DU-4475 = assay type: functional, cell-based, Homo sapiens; conditions: Homo sapiens, DU-4475
Description: SANGER: Inhibition of human DU-4475 cell growth in a cell viability assay.

SK-PN-DW = assay type: functional, cell-based, Homo sapiens; conditions: Homo sapiens, SK-PN-DW;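 further: growth inhibition measured with a viability assay on these cells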
Description: SANGER: Inhibition of human SK-PN-DW cell growth in a cell viability assay.

RPMI-8866 = assay type: functional, cell-based, Homo sapiens; conditions: Homo sapiens, RPMI-8866
Description: SANGER: Inhibition of human RPMI-8866 cell growth in a cell viability assay.

MV4-11 = assay type: functional, cell-based, Homo sapiens, MV-4-11; conditions: Homo sapiens, MV4-11;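 further: cell viability readout measuring growth inhibition of human MV-4-11 cells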
Description: SANGER: Inhibition of human MV-4-11 cell growth in a cell viability assay.

ONS-76 = assay type: functional, cell-based, Homo sapiens; conditions: Homo sapiens, ONS-76;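 further: growth inhibition of human ONS-76 cells, read out with a cell viability assay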
Description: SANGER: Inhibition of human ONS-76 cell growth in a cell viability assay.

JAR = assay type: functional, cell-based, Homo sapiens; conditions: Homo sapiens, JAR;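 further: growth inhibition of human JAR cells determined with a cell viability assay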
Description: SANGER: Inhibition of human JAR cell growth in a cell viability assay.

JVM-2 = assay type: functional, cell-based, Homo sapiens; conditions: Homo sapiens, JVM-2;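 further: growth inhibition of JVM-2 cells determined by a cell viability assay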
Description: SANGER: Inhibition of human JVM-2 cell growth in a cell viability assay.

C8166 = assay type: functional, cell-based, Homo sapiens; conditions: Homo sapiens, C8166;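 further: growth inhibition of human C8166 cells measured by a cell viability assay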
Description: SANGER: Inhibition of human C8166 cell growth in a cell viability assay.

CCRF-CEM = assay type: functional, cell-based, Homo sapiens; conditions: Homo sapiens, CCRF-CEM;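 further: inhibition of CCRF-CEM cell growth, measured by a cell viability assay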
Description: SANGER: Inhibition of human CCRF-CEM cell growth in a cell viability assay.

LB2241-RCC = assay type: functional, cell-based, Homo sapiens; conditions: Homo sapiens, LB2241-RCC;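 further: cell viability assay measuring how strongly the cultured human renal carcinoma line is prevented from growing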
Description: SANGER: Inhibition of human LB2241-RCC cell growth in a cell viability assay.

NCI-N87 = assay type: functional, cell-based; conditions: Homo sapiens;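 further: growth inhibition of human NCI-N87 cells, read out with a cell viability assay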
Description: SANGER: Inhibition of human NCI-N87 cell growth in a cell viability assay.

Question: How did the IC50 (NCI-H1155) turn out when `COC(=O)[C@H](CCSC)NC(=O)c1ccc(NC[C@@H](N)CS)cc1-c1ccccc1` was run?
Answer: Its IC50 is > 1020 nM.

Question: What about the IC50 (BB30-HNC) of the same compound?
Answer: The IC50 was > 1020 nM.

Question: And the IC50 (OS-RC-2)?
Answer: The IC50 was > 1020 nM.

Question: And the IC50 (IST-MES1)?
Answer: Its IC50 is > 1020 nM.

Question: And the IC50 (NCI-H1650)?
Answer: The IC50 was > 1020 nM.

Question: And the IC50 (LS-513)?
Answer: The IC50 was > 1020 nM.

Question: And the IC50 (A498)?
Answer: The IC50 was > 1020 nM.

Question: What about the IC50 (NCI-H1299) of the same compound?
Answer: The IC50 was > 1020 nM.

Question: What about the IC50 (HH) of the same compound?
Answer: Its IC50 is > 1020 nM.

Question: What about the IC50 (DOHH-2) of the same compound?
Answer: The IC50 was > 1020 nM.

Question: What about the IC50 (NCI-H23) of the same compound?
Answer: Its IC50 is > 1020 nM.

Question: And the IC50 (Mo)?
Answer: Its IC50 is > 1020 nM.

Question: What about the IC50 (SNU-5) of the same compound?
Answer: The IC50 was > 1020 nM.

Question: And the IC50 (NCI-H720)?
Answer: Its IC50 is > 1020 nM.

Question: And the IC50 (NH-12)?
Answer: The IC50 was > 1020 nM.

Question: What about the IC50 (SBC-1) of the same compound?
Answer: Its IC50 is > 1020 nM.

Question: And the IC50 (IST-SL1)?
Answer: The IC50 was > 1020 nM.

Question: And the IC50 (L-363)?
Answer: The IC50 was > 1020 nM.

Question: And the IC50 (LAMA-84)?
Answer: The IC50 was > 1020 nM.

Question: And the IC50 (NCI-H226)?
Answer: The IC50 was > 1020 nM.

Question: What about the IC50 (SCC-15) of the same compound?
Answer: The IC50 was > 1020 nM.

Question: What about the IC50 (DoTc2-4510) of the same compound?
Answer: Its IC50 is > 1020 nM.

Question: And the IC50 (ES4)?
Answer: Its IC50 is > 1020 nM.

Question: What about the IC50 (KM-H2) of the same compound?
Answer: The IC50 was > 1020 nM.

Question: And the IC50 (HD-MY-Z)?
Answer: Its IC50 is > 1020 nM.

Question: What about the IC50 (ACN) of the same compound?
Answer: The IC50 was > 1020 nM.

Question: What about the IC50 (KURAMOCHI) of the same compound?
Answer: The IC50 was > 1020 nM.

Question: What about the IC50 (HCC2157) of the same compound?
Answer: Its IC50 is > 1020 nM.

Question: And the IC50 (IA-LM)?
Answer: The IC50 was 955 nM.

Question: What about the IC50 (SK-N-FI) of the same compound?
Answer: The IC50 was > 1020 nM.

Question: And the IC50 (8-MG-BA)?
Answer: Its IC50 is > 1020 nM.

Question: What about the IC50 (HCE-T) of the same compound?
Answer: The IC50 was > 1020 nM.

Question: What about the IC50 (SK-UT-1) of the same compound?
Answer: Its IC50 is > 1020 nM.

Question: And the IC50 (MZ7-mel)?
Answer: Its IC50 is > 1020 nM.

Question: What about the IC50 (MONO-MAC-6) of the same compound?
Answer: Its IC50 is > 1020 nM.

Question: What about the IC50 (MHH-PREB-1) of the same compound?
Answer: Its IC50 is > 1020 nM.

Question: And the IC50 (no-10)?
Answer: The IC50 was > 1020 nM.

Question: And the IC50 (LOX IMVI)?
Answer: Its IC50 is > 1020 nM.

Question: And the IC50 697?
Answer: The IC50 was > 1020 nM.

Question: What about the IC50 (DU-4475) of the same compound?
Answer: The IC50 was > 1020 nM.

Question: And the IC50 (SK-PN-DW)?
Answer: The IC50 was > 1020 nM.

Question: And the IC50 (RPMI-8866)?
Answer: The IC50 was > 1020 nM.

Question: What about the IC50 (MV4-11) of the same compound?
Answer: The IC50 was > 1020 nM.

Question: And the IC50 (ONS-76)?
Answer: The IC50 was 838 nM.

Question: What about the IC50 (JAR) of the same compound?
Answer: Its IC50 is > 1020 nM.

Question: And the IC50 (JVM-2)?
Answer: The IC50 was > 1020 nM.

Question: What about the IC50 (C8166) of the same compound?
Answer: Its IC50 is > 1020 nM.

Question: What about the IC50 (CCRF-CEM) of the same compound?
Answer: Its IC50 is > 1020 nM.

Question: And the IC50 (LB2241-RCC)?
Answer: The IC50 was > 1020 nM.

Question: What about the IC50 (NCI-N87) of the same compound?
Answer: The IC50 was > 1020 nM.

Question: Which results are given for `Cc1ccc(C(=O)Nc2ccc(CN3CCN(C)CC3)c(C(F)(F)F)c2)cc1C#Cc1cnc2cccnn12` [PONATINIB]?
Answer: IC50 (NCI-H1155): > 512 nM; IC50 (BB30-HNC): > 512 nM; IC50 (OS-RC-2): > 512 nM; IC50 (IST-MES1): 268 nM; IC50 (NCI-H1650): > 512 nM; IC50 (LS-513): > 512 nM; IC50 (A498): > 512 nM; IC50 (NCI-H1299): > 512 nM; IC50 (HH): > 512 nM; IC50 (DOHH-2): 48 nM; IC50 (NCI-H23): > 512 nM; IC50 (Mo): > 512 nM; IC50 (SNU-5): > 512 nM; IC50 (NCI-H720): > 512 nM; IC50 (NH-12): > 512 nM; IC50 (SBC-1): > 512 nM; IC50 (IST-SL1): > 512 nM; IC50 (L-363): > 512 nM; IC50 (LAMA-84): < 2 nM; IC50 (NCI-H226): > 512 nM; IC50 (SCC-15): > 512 nM; IC50 (DoTc2-4510): > 512 nM; IC50 (ES4): > 512 nM; IC50 (KM-H2): > 512 nM; IC50 (HD-MY-Z): > 512 nM; IC50 (ACN): 349 nM; IC50 (KURAMOCHI): 284 nM; IC50 (HCC2157): > 512 nM; IC50 (IA-LM): > 512 nM; IC50 (SK-N-FI): > 512 nM; IC50 (8-MG-BA): > 512 nM; IC50 (HCE-T): > 512 nM; IC50 (SK-UT-1): > 512 nM; IC50 (MZ7-mel): > 512 nM; IC50 (MONO-MAC-6): 8.37 nM; IC50 (MHH-PREB-1): > 512 nM; IC50 (no-10): > 512 nM; IC50 (LOX IMVI): > 512 nM; IC50 697: 189 nM; IC50 (DU-4475): 495 nM; IC50 (SK-PN-DW): > 512 nM; IC50 (RPMI-8866): > 512 nM; IC50 (MV4-11): < 2 nM; IC50 (ONS-76): > 512 nM; IC50 (JAR): > 512 nM; IC50 (JVM-2): > 512 nM; IC50 (C8166): > 512 nM; IC50 (CCRF-CEM): > 512 nM; IC50 (LB2241-RCC): > 512 nM; IC50 (NCI-N87): > 512 nM

From ChEMBL document CHEMBL1201861, “Genomics of Drug Sensitity in Cancer screening data, Wellcome Trust Sanger Institute”
